# Reference: patent US6224887A, “Antifungal nail lacquer and method using same” (MacroChem Corporation, priority 1999, dated 2001)
# Read-outs that look alike come from different tables or passages of the source.
# Conditions: lacquer, 1200 h
# Procedure: Using the above formulation with 5% Econazole and 53% ethanol, stability testing was performed. […] In addition, gas chromatography quantitative analysis was conducted on samples stored in glass containers for 50 days at 40° C./75%RH at varying pH (5.2, 6.83, 12.2; by addition of acid or base, as necessary).
# The analytical test procedure involves a simple direct dilution and injection method for determining levels of both antifungal agent and enhancer compound in the same chromatogram, i.e., without separation steps. […] Specifically, a Hewlett-Packard Model 5890 Chromatograph with a Hewlett-Packard 50+(crosslinked 50% phenylmethylsiloxane), 30 m, 0.32 mm ID, 0.50μ film (Cat. #19091L) column and Model 7673 Autoinjector, operating in split mode (split flow 0.7 mL/min; split ratio 0.652:1), using methanol as wash solvent and hexanophenone as internal standard, was used for the analysis. In Table 2 the results are reported for the average of six injections.
SEPA assay (pH 5.2),SEPA assay (pH 6.83),SEPA assay (pH 12.2),Econazole Assay (pH 5.2),Econazole Assay (pH 6.83),Econazole Assay (pH 12.2),SMILES
93.85%,98.41%,99.36%,,,,"CCCCCCCCCC1OCCO1 [SEPA, 2-n-nonyl-1,3-dioxolane]"
,,,94.29%,96.67%,97.60%,Clc1ccc(COC(Cn2ccnc2)c2ccc(Cl)cc2Cl)cc1 (stereo not drawn) [Econazole]
